Values quoted from earlier work in patent US20170252311A1, “SPHINGOSINE KINASE INHIBITORS AND CERAMIDE FOR MAINTENANCE THERAPY OF GLIOBLASTOMA” (SignPath Pharma Inc., priority 2016, published 2017).
Like-named read-outs stand apart in the source and are kept apart here.

Assays:
[1] = tested on: tumor; conditions: single agent
[2] = tested on: Cer Syn (ceramide synthase)
[3] = tested on: SK (sphingosine kinase); conditions: arrow down = decrease, arrow up = increase (not defined in patent)
[4] = tested on: U98G cell line
[5] = tested on: U118MG cell line
[6] = tested on: U251MG, D54MG cell lines
[7] = tested on: JC mammary adenocarcinoma cells; conditions: syngeneic BALB/c mouse solid tumor model of JC cells
[8] = tested on: U87MG, U1242MG, M059K cell lines; conditions: in all three lines
[9] = tested on: JC mouse mammary adenocarcinoma cell line
[10] = tested on: xenograft prostate cancer models
[11] = tested on: prostate cancer cell lines and TRAMP-C2 xenografts
[12] = tested on: GTP cyclohydrolase (GTPCH); conditions: C6 glioma cell line
[13] = tested on: SPT (serine palmitoyltransferase)
[14] = target: GCS (glucosylceramide synthase) (Homo sapiens, UniProt Q16739)
[15] = tested on: SM Syn
[16] = target: T1, Acid Cer (Acid ceramidase) (Homo sapiens, UniProt Q13510)
T1 sequence (Q13510 22-395): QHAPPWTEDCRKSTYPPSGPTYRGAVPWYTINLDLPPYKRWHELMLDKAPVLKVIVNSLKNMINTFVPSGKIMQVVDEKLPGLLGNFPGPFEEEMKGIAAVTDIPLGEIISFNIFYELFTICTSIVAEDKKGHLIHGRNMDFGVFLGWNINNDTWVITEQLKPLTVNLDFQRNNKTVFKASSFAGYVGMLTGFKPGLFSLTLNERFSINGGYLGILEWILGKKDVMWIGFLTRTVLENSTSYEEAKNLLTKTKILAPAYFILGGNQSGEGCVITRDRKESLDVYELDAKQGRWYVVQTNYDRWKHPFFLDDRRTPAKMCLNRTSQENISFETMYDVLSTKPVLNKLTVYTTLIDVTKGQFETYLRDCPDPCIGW

[17] = tested on: SMase (Sphingomyelinase)
[18] = tested on: GBM6 cell lines
[19] = tested on: protein kinase C; conditions: selectivity
[20] = tested on: human leukemic cell lines and acute myelogenous leukemia xenografts; conditions: human leukemic cell lines and AML xenografts
[21] = tested on: LN229 intracranial xenografts
[22] = tested on: other serine/threonine kinases; conditions: selectivity
[23] = tested on: LN229 and U373 glioblastoma cell lines, non-established human GBM6 cells, and GBM xenografts
[24] = target: SK2 (Homo sapiens, UniProt Q9NRA0); conditions: selectivity
[25] = tested on: LN229, U373 cell lines
[26] = tested on: protein kinase B; conditions: selectivity

Chain of GCS (glucosylceramide synthase) (Q16739 whole entry, species assumed): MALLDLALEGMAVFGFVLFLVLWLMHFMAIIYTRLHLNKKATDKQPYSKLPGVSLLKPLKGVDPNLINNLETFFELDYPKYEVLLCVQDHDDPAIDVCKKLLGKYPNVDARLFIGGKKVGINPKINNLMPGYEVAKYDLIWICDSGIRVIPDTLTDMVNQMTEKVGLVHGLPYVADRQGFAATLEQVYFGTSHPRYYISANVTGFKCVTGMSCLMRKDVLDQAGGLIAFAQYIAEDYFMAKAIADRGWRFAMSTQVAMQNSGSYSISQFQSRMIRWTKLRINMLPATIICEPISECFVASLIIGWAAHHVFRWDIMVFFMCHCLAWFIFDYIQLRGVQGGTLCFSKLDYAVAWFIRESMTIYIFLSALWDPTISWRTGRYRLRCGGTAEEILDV
Chain of SK2 (Q9NRA0 whole entry): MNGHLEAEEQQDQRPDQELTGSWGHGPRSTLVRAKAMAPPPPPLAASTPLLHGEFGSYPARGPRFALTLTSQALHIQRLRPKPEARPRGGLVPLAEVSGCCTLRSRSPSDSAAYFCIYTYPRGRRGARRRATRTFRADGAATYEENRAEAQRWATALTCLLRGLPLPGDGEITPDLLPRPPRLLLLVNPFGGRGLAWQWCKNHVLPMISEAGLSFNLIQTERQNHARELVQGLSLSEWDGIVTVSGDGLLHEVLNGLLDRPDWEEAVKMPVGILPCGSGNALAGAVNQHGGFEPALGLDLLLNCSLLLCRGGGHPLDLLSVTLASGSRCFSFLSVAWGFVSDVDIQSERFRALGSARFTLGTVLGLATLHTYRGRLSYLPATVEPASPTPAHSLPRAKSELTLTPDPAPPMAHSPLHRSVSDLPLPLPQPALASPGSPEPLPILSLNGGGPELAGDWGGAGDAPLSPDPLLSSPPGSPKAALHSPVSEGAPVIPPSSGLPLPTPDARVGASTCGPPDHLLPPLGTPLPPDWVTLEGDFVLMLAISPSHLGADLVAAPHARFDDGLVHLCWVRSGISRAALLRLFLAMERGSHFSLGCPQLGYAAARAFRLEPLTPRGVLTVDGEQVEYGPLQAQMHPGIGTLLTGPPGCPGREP

Structure (SMILES): CCCCCCCCCCCCC/C=C/[C@@H](O)[C@H](CO)[N+](C)(C)C [N,N,N-trimethylsphingosine]
- anti-tumor activity alone [1]: did not appear to have significant anti-tumor activity alone

Structure (SMILES): Cc1ccc(NC(=O)c2ccc(CN3CCN(C)CC3)cc2)cc1Nc1nccc(-c2cccnc2)n1 [Imatinib]
- Sphingolipid Enzymes Affected: Cer Syn [2]: ↑Cer Syn
- Sphingolipid Enzymes Affected: SK [3]: ↓SK

Structure (SMILES): Oc1ccc(Nc2nc(-c3ccc(Cl)cc3)cs2)cc1 [SKI-II, 4-[4-(4-chloro-phenyl)-thiazol-2-ylamino]-phenol]
- cell cycle (accumulation of cells at G1) [4]: accumulation of cells at G1.
- proliferation [4]: Decreased proliferation. Caused
- expression of urokinase plasminogen activator [5]: Blocked
- invasiveness [5]: Decreased invasiveness
- cancer cell death ([6]; TMZ resistant GBM cell lines U251 and D54MG): promote cancer cell death
- activity in cell lines made resistant to TMZ ([6]; U251MG, D54MG): Active in cell lines mde resistant
- anti-tumor activity [7]: especially effective
- cellular proliferation ([8]; listed as 2-(p-Hdroxyanilino)-4-(p-chlorophenyl)thiazole): Decreased cellular proliferation
- cellular proliferation ([8]; listed as 2-(p-Hydroxyanilino)-4-(p-chlorophenyl)thiazole): significantly decreased the rate of proliferation
- anti-tumor activity [9]: anti-tumor activity

Structure (SMILES): O=C(NCc1ccncc1)C12CC3CC(C1)CC(c1ccc(Cl)cc1)(C3)C2 [ABC294640, 3-(4-chlorophenyl)-adamantane-1-carboxylic acid (pyridin-4-ylmethyl) amide]
- cancer growth [10]: significantly blocked cancer growth
- cell viability [11]: reduced cell viability
- expression of c-myc [11]: decreased expression of c-myc

Structure (SMILES): CCCCCCCCCCCCC/C=C/[C@@H](O)[C@H](CO)N(C)C [N,N-dimethylshingosine]
- tumor necrosis factor-α induced GTP cyclohydrolase (GTPCH) activity [12]: Suppressed tumor necrosis

Structure (SMILES): Cc1cn(-c2cc(NC(=O)c3ccc(C)c(Nc4nccc(-c5cccnc5)n4)c3)cc(C(F)(F)F)c2)cn1 [Nilotinib]
- Sphingolipid Enzymes Affected: Cer Syn [2]: ↑Cer Syn
- Sphingolipid Enzymes Affected: SK [3]: ↓SK

Structure (SMILES): Oc1ccc(C=Cc2cc(O)cc(O)c2)cc1 [Resveratrol]
- Sphingolipid Enzymes Affected: SPT [13]: ↑SPT
- Sphingolipid Enzymes Affected: Cer Syn [2]: ↑Cer Syn
- Sphingolipid Enzymes Affected: SK [3]: ↓SK

Structure (SMILES): O=C(NN=Cc1c(O)ccc2ccccc12)c1cc(-c2ccc3ccccc3c2)n[nH]1 [SKI-I, 5-naphthalen-2-yl-2H-pyrazole-3-carboxylic acid (2-hydroxy-naphthalen-1-ylmethylene)-hydrazide]
- anti-tumor activity [7]: anti-tumor activity
- anti-tumor activity [9]: anti-tumor activity

Structure (SMILES): CCN(CC)CCCC(C)Nc1ccnc2cc(Cl)ccc12 (stereo not drawn) [Chloroquine]
- Sphingolipid Enzymes Affected: GCS [14]: ↑GCS
- Sphingolipid Enzymes Affected: SM Syn [15]: ↓SM Syn
- Sphingolipid Enzymes Affected: Acid Cer [16]: ↓Acid Cer
- Sphingolipid Enzymes Affected: SK [3]: ↓SK
- Sphingolipid Enzymes Affected: SMase [17]: ↑↓Smase

Structure (SMILES): OC(c1cc(C(F)(F)F)nc2c(C(F)(F)F)cccc12)C1CCCCN1 (stereo not drawn) [Mefloquine]
- Sphingolipid Enzymes Affected: GCS [14]: ↑GCS
- Sphingolipid Enzymes Affected: SM Syn [15]: ↓SM Syn
- Sphingolipid Enzymes Affected: Acid Cer [16]: ↓Acid Cer
- Sphingolipid Enzymes Affected: SK [3]: ↓SK
- Sphingolipid Enzymes Affected: SMase [17]: ↑↓Smase

Structure (SMILES): CC/C(=C(\c1ccccc1)c1ccc(OCCN(C)C)cc1)c1ccccc1 [tamoxifen]
- Sphingolipid Enzymes Affected: Acid Cer [16]: decreases acid ceramidase

Structure (SMILES): CCCCCCCCCCCCCCC[C@H](O)[C@@H](N)CO [safingol, D,L-threodihydrosphingosine]
- anti-tumor activity alone [1]: did not appear to have significant anti-tumor activity alone

Structure (SMILES): COc1cc(/C=C/C(=O)CC(=O)/C=C/c2ccc(O)c(OC)c2)ccc1O [Curcumin]
- Sphingolipid Enzymes Affected: SPT [13]: ↑SPT
- Sphingolipid Enzymes Affected: Cer Syn [2]: ↑Cer Syn
- Sphingolipid Enzymes Affected: SK [3]: ↓SK

Structure (SMILES): O=C1C(=Cc2ccc(O)c(O)c2)Oc2ccccc21 [SKI-V, 2-(3,4-dihydroxy-benzylidene)-benzofuran-3-one]
- anti-tumor activity [7]: anti-tumor activity
- anti-tumor activity [9]: anti-tumor activity

Structure (SMILES): CCCCCc1ccc(/C=C/[C@H](O)[C@@H](CO)NC)cc1 [SK1-I, (2R,3S,4E)-N-methyl-5-(4′-pentylphenyl)-2-aminopent-4-ene-1,3-diol]
- cell growth [18]: Reduced cell growth
- epidermal growth factor-stimulated phosphorylation of Akt [18]: Reduced
- inhibition of protein kinase C [19]: does not inhibit
- apoptosis [20]: induced apoptosis
- tumor growth [20]: blocked tumor growth
- angiogenesis [21]: Reduced
- apoptosis [21]: Caused apoptosis
- tumor growth rate [21]: Reduced tumor growth rate.
- inhibition of other serine/threonine kinases [22]: does not inhibit
- apoptosis [23]: prompts apoptosis
- protein kinase B (Akt) signaling [23]: inhibits protein kinase B (Akt) signaling
- tumor development [23]: suppresses tumor development
- inhibition of SK2 [24]: does not inhibit
- cell growth [25]: Inhibited cell growth
- migration [25]: Inhibited
- inhibition of protein kinase B [26]: does not inhibit
